# Legend:
# Homo sapiens = organism: Homo sapiens; assay: Inhibition of glycogen phosphorylase (unknown origin) assessed as inorganic phosphate production at 100 uM after 30 min
# [1] = molecular target: T1, Glucose-6-phosphatase catalytic subunit 1 (Homo sapiens) (UniProt P35575); assay: Inhibition of glucose-6-phosphatase (unknown origin) using glucose-6-phosphate as substrate assessed as inorganic phosphate production at 100 uM after 30 min
# T1 sequence (whole entry): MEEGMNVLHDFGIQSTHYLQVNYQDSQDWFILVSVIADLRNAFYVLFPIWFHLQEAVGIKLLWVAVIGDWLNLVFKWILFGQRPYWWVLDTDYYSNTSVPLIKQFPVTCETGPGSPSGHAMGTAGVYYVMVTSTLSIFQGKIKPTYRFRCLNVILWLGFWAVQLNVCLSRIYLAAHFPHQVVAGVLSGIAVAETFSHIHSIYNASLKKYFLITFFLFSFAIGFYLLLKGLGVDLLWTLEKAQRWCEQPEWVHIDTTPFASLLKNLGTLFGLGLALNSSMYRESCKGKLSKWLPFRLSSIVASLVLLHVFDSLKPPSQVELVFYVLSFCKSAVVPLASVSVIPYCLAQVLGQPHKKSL
# [2] = molecular target: T2, Tyrosine-protein phosphatase non-receptor type 1 (Homo sapiens) (UniProt P18031); assay: Inhibition of PTP1B (unknown origin) using p-nitrophenyl phosphate as substrate assessed as p-nitrophenolate ions production at 100 uM after 10 min
# T2 sequence (whole entry): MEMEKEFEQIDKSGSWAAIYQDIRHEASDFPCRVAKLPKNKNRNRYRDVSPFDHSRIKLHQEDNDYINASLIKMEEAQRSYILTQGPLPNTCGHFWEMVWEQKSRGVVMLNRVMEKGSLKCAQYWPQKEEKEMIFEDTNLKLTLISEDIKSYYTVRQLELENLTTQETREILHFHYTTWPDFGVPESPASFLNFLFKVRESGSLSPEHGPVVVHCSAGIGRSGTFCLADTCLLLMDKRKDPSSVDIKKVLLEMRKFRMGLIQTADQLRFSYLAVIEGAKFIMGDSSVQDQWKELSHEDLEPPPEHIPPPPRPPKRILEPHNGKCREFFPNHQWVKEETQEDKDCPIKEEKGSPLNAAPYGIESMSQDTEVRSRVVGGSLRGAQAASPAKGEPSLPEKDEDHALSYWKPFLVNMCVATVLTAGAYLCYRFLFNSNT
SMILES,inhibition (Homo sapiens),inhibition [1],inhibition [2]
CCCCCCCCCCCCCCCCCOC(=O)CCCCCCCCCCCCCCCC,18.9%,12.7%,1.3%
CCCCCCCCCCCCCCCCCCOCC(O)CO (centres undefined),14.2%,4.25%,4.1%
CCCCCCCCCCCCCCCCCCCCCCO[C@H]1OC[C@H](O[C@H]2OC[C@H](O[C@H]3OC[C@H](O)[C@H](O)[C@H]3O)[C@H](OC(C)=O)[C@H]2O)[C@H](O)[C@H]1O,8.9%,8.6%,5.9%
CCCCCCCCCCCCCCCCO[C@H]1OC[C@H](O[C@H]2OC[C@H](O[C@H]3OC[C@H](O)[C@H](O)[C@H]3O)[C@H](O)[C@H]2O)[C@H](O)[C@H]1O,10.2%,12%,0.2%

# Second part, the compound after the results:
inhibition (Homo sapiens),inhibition [1],inhibition [2],SMILES
11.3%,14.6%,4.1%,CCCCC/C=C/CC/C=C/[C@@H](O)[C@H](CO)NC(=O)CCCCCCCCCCCCCCC
9.5%,10.2%,1.3%,CCCCCCCCCCC/C=C/C[C@@H](O)[C@H](CO)NC(=O)[C@H](O)CCCCCCCCCCCCCCCCCC
17.2%,8.56%,11.1%,CCCCCCCCCCCCCCCCCCC(=O)OCCCCCCCCCCCCCCCCC
10.2%,15.9%,7.6%,C=C(CCCC(C)C)[C@H]1CCC2C3CC=C4C[C@@H](O)CC[C@]4(C)C3CC[C@@]21C (some centres undefined)
